Data set [1] deals with T1, PcdA (Staphylococcus aureus, UniProt A0A0H2XHA0).
T1 construct: gene SAUSA300_2094; full-length, untagged; His6-SUMO fusion (pTB146, pFRL159) cleaved with Ulp1; expressed in E. coli BL21(DE3)
T1 sequence (A0A0H2XHA0 1-457): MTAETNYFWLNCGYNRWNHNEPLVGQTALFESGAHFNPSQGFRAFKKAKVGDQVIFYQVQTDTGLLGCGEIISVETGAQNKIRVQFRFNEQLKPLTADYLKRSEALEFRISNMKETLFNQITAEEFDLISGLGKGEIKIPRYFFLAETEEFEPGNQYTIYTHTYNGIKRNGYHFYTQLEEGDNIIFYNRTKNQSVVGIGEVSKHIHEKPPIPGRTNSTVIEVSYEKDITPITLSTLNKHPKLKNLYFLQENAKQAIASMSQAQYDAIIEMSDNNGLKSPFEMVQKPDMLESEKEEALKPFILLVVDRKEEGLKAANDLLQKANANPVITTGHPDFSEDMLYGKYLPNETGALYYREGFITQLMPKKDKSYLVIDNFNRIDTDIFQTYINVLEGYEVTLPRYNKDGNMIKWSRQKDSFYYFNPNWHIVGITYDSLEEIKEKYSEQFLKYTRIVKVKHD
Nature of the data set: inorganic phosphate release (PiColorLock). As to conditions: 50 mM Tris-HCl pH 8.0, 150 mM KCl, 5 mM MgCl2, 37 °C, 0.25-4 mM NTP, 2.5 μM protein. The data set is classed as biochemical.

Data set [2] concerns the molecule itself. Nature of the data set: co-sedimentation; with 2 mM GMPCPP; 30 μM FtsZ with or without PcdA (5 μM in the legend, 10 μM in the methods); 20 mM HEPES pH 7.5, 140 mM KCl, 5 mM MgCl2; 10 min at 37 °C, then 30 min at 129,000 × g; supernatant and pellet on SDS-PAGE, Coomassie.

Turning to `Nc1nc2c(ncn2[C@@H]2O[C@H](COP(=O)(O)OP(=O)(O)OP(=O)(O)O)[C@@H](O)[C@H]2O)c(=O)[nH]1` [GTP], the kcat result in data set [1] is given as “Incubation of increasing concentrations of either ATP or GTP with PcdA produced saturation curves”.

For `Nc1ncnc2c1ncn2[C@@H]1O[C@H](COP(=O)(O)OP(=O)(O)OP(=O)(O)O)[C@@H](O)[C@H]1O` [ATP], the kcat result in data set [1] is given as “Incubation of increasing concentrations of either ATP or GTP with PcdA produced saturation curves”.

B1: FtsZ (purified recombinant untagged S. aureus FtsZ) (natural protein, UniProt P0A031 1-390, looked up)
chain: MLEFEQGFNHLATLKVIGVGGGGNNAVNRMIDHGMNNVEFIAINTDGQALNLSKAESKIQIGEKLTRGLGAGANPEIGKKAAEESREQIEDAIQGADMVFVTSGMGGGTGTGAAPVVAKIAKEMGALTVGVVTRPFSFEGRKRQTQAAAGVEAMKAAVDTLIVIPNDRLLDIVDKSTPMMEAFKEADNVLRQGVQGISDLIAVSGEVNLDFADVKTIMSNQGSALMGIGVSSGENRAVEAAKKAISSPLLETSIVGAQGVLMNITGGESLSLFEAQEAADIVQDAADEDVNMIFGTVINPELQDEIVVTVIATGFDDKPTSHGRKSGSTGFGTSVNTSSNATSKDESFTSNSSNAQATDSVSERTHTTKEDDIPSFIRNREERRSRRTRR
notes: FtsZ, tubulin homolog, Staphylococcus aureus; Polymerised with GMPCPP in the co-sedimentation assay, unpolymerised (no GTP) in the filter retention assay
With B1, in data set [2], the binding result is “binds”.

These data come from paper doi:10.1101/2023.09.03.556088, “Protein coopted from a phage restriction system dictates orthogonal cell division plane selection in Staphylococcus aureus” (bioRxiv, 2023).
